In assay [1] the target is SNF-related serine/threonine-protein kinase (Homo sapiens) (UniProt Q9NRH2). The assay is described as follows: Inhibition of wild-type human partial length SNRK (M1 to E339 residues) expressed in mammalian expression system at 1 uM by Kinomescan method relative to control.
In assay [2] the target is Vascular endothelial growth factor receptor 2 (Homo sapiens) (UniProt P35968). The experiment in a line: Inhibition of wild-type human partial length VEGFR2 (R787 to P1253 residues) expressed in mammalian expression system at 1 uM by Kinomescan method relative to control.
The target in assay [3] is Bone morphogenetic protein receptor type-1A (Homo sapiens) (UniProt P36894). The assay is described as follows: Inhibition of wild-type human partial length BMPR1A (Q214 to I532 residues) expressed in bacterial expression system at 1 uM by Kinomescan method relative to control.
Assay [4] has as its target Mitogen-activated protein kinase 6 (Homo sapiens) (UniProt Q16659). The assay is described as follows: Inhibition of wild-type human partial length ERK3 (M1 to P413 residues) expressed in bacterial expression system at 1 uM by Kinomescan method relative to control.
Assay [5] has as its target RAC-beta serine/threonine-protein kinase (Homo sapiens) (UniProt P31751). The assay is described as follows: Inhibition of wild-type human partial length AKT2 expressed in bacterial expression system at 1 uM by Kinomescan method relative to control.
In assay [6] the target is Phosphatidylinositol 3-kinase C2 domain-containing subunit gamma (Homo sapiens) (UniProt O75747). The experiment in a line: Inhibition of wild-type human partial length PIK3C2G (M1 to I1446 residues) expressed in mammalian expression system at 1 uM by Kinomescan method relative to control.
Assay [7] deals with Macrophage colony-stimulating factor 1 receptor (Homo sapiens) (UniProt P07333). The experiment in a line: Inhibition of wild-type human partial length CSF1R (I564 to S939 residues) expressed in bacterial expression system at 1 uM by Kinomescan method relative to control.
Assay [8] has as its target Protein kinase C epsilon type (Homo sapiens) (UniProt Q02156). The experiment in a line: Inhibition of wild-type human partial length PRKCE (A378 to P737 residues) expressed in mammalian expression system at 1 uM by Kinomescan method relative to control.
For assay [9], the target named is Non-receptor tyrosine-protein kinase TYK2 (Homo sapiens) (UniProt P29597). The experiment in a line: Inhibition of wild-type human partial length TYK2 JH1 catalytic domain (V877 to C1187 residues) expressed in mammalian expression system at 1 uM by Kinomescan method relative to control.
Chain of Non-receptor tyrosine-protein kinase TYK2 (Homo sapiens) (P29597 whole entry, the tested form may be a part): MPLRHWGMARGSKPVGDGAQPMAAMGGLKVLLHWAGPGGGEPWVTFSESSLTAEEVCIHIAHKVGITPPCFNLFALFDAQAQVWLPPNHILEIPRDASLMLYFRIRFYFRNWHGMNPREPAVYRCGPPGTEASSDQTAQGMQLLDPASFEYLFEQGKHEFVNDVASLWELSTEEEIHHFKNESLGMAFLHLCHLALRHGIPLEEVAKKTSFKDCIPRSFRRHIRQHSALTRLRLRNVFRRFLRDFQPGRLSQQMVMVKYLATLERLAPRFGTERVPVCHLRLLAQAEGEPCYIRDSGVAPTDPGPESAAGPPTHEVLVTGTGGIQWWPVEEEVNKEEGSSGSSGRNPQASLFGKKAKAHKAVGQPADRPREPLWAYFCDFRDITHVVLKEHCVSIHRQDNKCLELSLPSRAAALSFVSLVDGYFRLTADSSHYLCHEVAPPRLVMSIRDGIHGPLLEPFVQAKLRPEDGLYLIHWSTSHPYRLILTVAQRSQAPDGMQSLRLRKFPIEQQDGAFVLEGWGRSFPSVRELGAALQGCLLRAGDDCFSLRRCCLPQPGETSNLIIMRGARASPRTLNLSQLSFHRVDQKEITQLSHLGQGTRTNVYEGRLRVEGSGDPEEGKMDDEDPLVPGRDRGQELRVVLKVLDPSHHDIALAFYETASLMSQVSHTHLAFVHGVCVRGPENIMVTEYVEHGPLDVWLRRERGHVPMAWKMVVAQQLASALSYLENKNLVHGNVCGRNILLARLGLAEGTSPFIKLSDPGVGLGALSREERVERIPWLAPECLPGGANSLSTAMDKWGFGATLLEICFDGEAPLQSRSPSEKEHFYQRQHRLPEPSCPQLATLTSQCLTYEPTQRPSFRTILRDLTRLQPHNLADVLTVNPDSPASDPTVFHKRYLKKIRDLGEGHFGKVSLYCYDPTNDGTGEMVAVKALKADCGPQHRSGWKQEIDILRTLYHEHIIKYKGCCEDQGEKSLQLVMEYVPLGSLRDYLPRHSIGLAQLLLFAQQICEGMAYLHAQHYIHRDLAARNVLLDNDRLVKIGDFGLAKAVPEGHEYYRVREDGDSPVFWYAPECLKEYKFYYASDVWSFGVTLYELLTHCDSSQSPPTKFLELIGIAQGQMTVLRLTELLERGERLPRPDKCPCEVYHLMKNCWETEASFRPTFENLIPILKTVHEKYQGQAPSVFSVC
Assay [10] addresses Serine/threonine-protein kinase Nek10 (Homo sapiens) (UniProt Q6ZWH5). The assay is described as follows: Inhibition of wild-type human partial length NEK10 (L488 to R809 residues) expressed in mammalian expression system at 1 uM by Kinomescan method relative to control.
In assay [11] the target is Tyrosine-protein kinase BTK (Homo sapiens, UniProt Q06187). The assay is described as follows: Inhibition of wild-type human full length BTK (M1 to S659 residues) expressed in mammalian expression system at 1 uM by Kinomescan method relative to control.
Assay [12] concerns the target Activin receptor type-2B (Homo sapiens) (UniProt Q13705). The experiment in a line: Inhibition of wild-type human ACVR2B (H169 to D504 residues) expressed in bacterial expression system at 1 uM by Kinomescan method relative to control.
Assay [13] deals with MAP kinase-activated protein kinase 5 (Homo sapiens) (UniProt Q8IW41). The assay is described as follows: Inhibition of wild-type human partial length MAPKAPK5 (M1 to D322 residues) expressed in mammalian expression system at 10 uM by Kinomescan method relative to control.
Chain of MAP kinase-activated protein kinase 5 (Homo sapiens) (Q8IW41 whole entry, the tested form may be a part): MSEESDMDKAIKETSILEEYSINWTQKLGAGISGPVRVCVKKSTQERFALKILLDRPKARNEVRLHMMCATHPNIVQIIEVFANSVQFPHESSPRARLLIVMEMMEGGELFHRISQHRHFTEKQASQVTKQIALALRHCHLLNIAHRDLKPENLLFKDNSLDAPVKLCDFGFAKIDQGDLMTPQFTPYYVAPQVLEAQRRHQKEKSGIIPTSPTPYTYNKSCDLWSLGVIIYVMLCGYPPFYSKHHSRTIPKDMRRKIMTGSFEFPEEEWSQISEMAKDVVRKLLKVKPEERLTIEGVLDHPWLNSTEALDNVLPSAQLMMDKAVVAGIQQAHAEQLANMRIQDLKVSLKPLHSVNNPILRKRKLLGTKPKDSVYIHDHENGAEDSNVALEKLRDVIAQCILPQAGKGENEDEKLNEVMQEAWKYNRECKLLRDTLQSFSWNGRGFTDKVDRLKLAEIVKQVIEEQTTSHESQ
Assay [14] addresses Atypical kinase COQ8B, mitochondrial (Homo sapiens) (UniProt Q96D53). The assay is described as follows: Inhibition of wild-type human full length ADCK4 (M1 to S544 residues) expressed in bacterial expression system at 10 uM by Kinomescan method relative to control.
Assay [15] concerns the target ALK tyrosine kinase receptor (Homo sapiens) (UniProt Q9UM73). The experiment in a line: Inhibition of wild-type human partial length ALK (I1088 to E1409 residues) expressed in mammalian expression system at 10 uM by Kinomescan method relative to control.
Assay [16] deals with Non-receptor tyrosine-protein kinase TYK2 (Homo sapiens) (UniProt P29597). The experiment in a line: Inhibition of wild-type human partial length TYK2 JH2 pseudokinase domain (G556 to D888 residues) expressed in mammalian expression system at 10 uM by Kinomescan method relative to control.
The test system of assay [17] is Leucine-rich repeat serine/threonine-protein kinase 2 (Homo sapiens), Q5S007 [G2019S]. The experiment in a line: Inhibition of human partial length LRRK2 G2019S mutant (H970 to E2527 residues) expressed in mammalian expression system at 10 uM by Kinomescan method relative to control.
Assay [18] deals with Fibroblast growth factor receptor 2 (Homo sapiens) (UniProt P21802). The assay is described as follows: Inhibition of wild-type human partial length FGFR2 (D457 to E769 residues) expressed in bacterial expression system at 10 uM by Kinomescan method relative to control.
Assay [19] has as its target Serine/threonine-protein kinase RIO2 (Homo sapiens) (UniProt Q9BVS4). The assay is described as follows: Inhibition of wild-type human partial length RIOK2 (M1 to D313 residues) expressed in mammalian expression system at 10 uM by Kinomescan method relative to control.
The target in assay [20] is Ephrin type-B receptor 6 (Homo sapiens) (UniProt O15197). The assay is described as follows: Inhibition of wild-type human partial length EPHB6 (Q634 to P948 residues) expressed in mammalian expression system at 10 uM by Kinomescan method relative to control.
The target of assay [21] is Serine/threonine-protein kinase 25 (Homo sapiens) (UniProt O00506). The experiment in a line: Inhibition of wild-type human partial length YSK1 (V14 to H295 residues) expressed in bacterial expression system at 10 uM by Kinomescan method relative to control.
Chain of Serine/threonine-protein kinase 25 (Homo sapiens) (O00506 whole entry, looked up, the tested form may be a part): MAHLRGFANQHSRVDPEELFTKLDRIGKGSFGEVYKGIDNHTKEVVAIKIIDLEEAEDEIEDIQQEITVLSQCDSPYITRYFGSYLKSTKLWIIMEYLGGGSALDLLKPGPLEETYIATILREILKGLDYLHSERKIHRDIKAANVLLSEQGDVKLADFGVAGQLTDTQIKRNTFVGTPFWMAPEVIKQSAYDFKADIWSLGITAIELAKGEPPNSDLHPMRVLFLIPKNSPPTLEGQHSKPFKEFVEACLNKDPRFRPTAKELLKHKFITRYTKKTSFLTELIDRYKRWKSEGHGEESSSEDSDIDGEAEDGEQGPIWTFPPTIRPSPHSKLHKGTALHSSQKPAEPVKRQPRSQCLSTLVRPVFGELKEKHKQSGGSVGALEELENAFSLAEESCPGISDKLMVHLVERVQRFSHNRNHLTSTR
In assay [22] the target is Serine/threonine-protein kinase 10 (Homo sapiens) (UniProt O94804). The assay is described as follows: Inhibition of wild-type human partial length LOK (E16 to V314 residues) expressed in bacterial expression system at 10 uM by Kinomescan method relative to control.
The target in assay [23] is Cyclin-dependent kinase 11B (Homo sapiens) (UniProt P21127). The assay is described as follows: Inhibition of wild-type human partial length CDC2L1 (P353 to G692 residues) expressed in bacterial expression system at 10 uM by Kinomescan method relative to control.
Assay [24] has as its target Mitogen-activated protein kinase kinase kinase 13 (Homo sapiens) (UniProt O43283). The assay is described as follows: Inhibition of wild-type human full length LZK (M1 to W966 residues) expressed in mammalian expression system at 10 uM by Kinomescan method relative to control.
The target of assay [25] is 3-phosphoinositide-dependent protein kinase 1 (Homo sapiens) (UniProt O15530). The assay is described as follows: Inhibition of wild-type human full length PDPK1 (M1 to Q556 residues) expressed in bacterial expression system at 10 uM by Kinomescan method relative to control.
The target in assay [26] is Receptor-type tyrosine-protein kinase FLT3 (Homo sapiens) (UniProt P36888). The experiment in a line: Inhibition of wild-type human partial length FLT3 (V592 to Y969 residues) expressed in bacterial expression system at 10 uM by Kinomescan method relative to control.
Chain of Receptor-type tyrosine-protein kinase FLT3 (Homo sapiens) (P36888 whole entry, the tested form may be a part): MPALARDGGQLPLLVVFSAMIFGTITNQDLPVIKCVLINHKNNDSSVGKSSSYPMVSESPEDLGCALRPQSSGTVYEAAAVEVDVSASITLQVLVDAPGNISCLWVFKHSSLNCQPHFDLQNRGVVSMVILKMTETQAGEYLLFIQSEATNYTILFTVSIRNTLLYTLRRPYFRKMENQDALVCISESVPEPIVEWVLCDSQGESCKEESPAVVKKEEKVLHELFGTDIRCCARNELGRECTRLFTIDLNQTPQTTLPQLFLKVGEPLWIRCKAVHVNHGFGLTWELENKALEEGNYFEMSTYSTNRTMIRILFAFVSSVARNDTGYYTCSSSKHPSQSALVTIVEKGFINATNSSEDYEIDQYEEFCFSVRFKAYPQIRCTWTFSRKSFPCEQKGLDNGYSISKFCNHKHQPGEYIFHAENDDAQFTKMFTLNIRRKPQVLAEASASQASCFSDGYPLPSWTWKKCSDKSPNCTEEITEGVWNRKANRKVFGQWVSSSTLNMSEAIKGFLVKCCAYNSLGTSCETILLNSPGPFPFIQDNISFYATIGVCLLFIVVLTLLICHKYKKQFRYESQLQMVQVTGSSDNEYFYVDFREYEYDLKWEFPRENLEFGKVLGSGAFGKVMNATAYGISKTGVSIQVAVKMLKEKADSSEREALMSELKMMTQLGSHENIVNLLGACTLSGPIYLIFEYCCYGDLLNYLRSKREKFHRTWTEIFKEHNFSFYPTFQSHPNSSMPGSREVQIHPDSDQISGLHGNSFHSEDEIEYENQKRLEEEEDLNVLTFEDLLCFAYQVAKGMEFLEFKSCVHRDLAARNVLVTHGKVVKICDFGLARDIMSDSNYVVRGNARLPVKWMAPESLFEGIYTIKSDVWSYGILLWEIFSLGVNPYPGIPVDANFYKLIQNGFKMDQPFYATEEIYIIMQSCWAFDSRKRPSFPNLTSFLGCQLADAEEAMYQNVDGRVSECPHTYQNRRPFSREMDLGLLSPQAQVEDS
Assay [27] has as its target Serine/threonine-protein kinase NLK (Homo sapiens) (UniProt Q9UBE8). The experiment in a line: Inhibition of wild-type human full length NLK (M13 to E527 residues) expressed in bacterial expression system at 10 uM by Kinomescan method relative to control.

Structures are written as SMILES.

The term inhibition denotes the drop in the measured response relative to a control, in per cent.

Chain of ALK tyrosine kinase receptor (Homo sapiens) (Q9UM73 19-1620 limits assumed): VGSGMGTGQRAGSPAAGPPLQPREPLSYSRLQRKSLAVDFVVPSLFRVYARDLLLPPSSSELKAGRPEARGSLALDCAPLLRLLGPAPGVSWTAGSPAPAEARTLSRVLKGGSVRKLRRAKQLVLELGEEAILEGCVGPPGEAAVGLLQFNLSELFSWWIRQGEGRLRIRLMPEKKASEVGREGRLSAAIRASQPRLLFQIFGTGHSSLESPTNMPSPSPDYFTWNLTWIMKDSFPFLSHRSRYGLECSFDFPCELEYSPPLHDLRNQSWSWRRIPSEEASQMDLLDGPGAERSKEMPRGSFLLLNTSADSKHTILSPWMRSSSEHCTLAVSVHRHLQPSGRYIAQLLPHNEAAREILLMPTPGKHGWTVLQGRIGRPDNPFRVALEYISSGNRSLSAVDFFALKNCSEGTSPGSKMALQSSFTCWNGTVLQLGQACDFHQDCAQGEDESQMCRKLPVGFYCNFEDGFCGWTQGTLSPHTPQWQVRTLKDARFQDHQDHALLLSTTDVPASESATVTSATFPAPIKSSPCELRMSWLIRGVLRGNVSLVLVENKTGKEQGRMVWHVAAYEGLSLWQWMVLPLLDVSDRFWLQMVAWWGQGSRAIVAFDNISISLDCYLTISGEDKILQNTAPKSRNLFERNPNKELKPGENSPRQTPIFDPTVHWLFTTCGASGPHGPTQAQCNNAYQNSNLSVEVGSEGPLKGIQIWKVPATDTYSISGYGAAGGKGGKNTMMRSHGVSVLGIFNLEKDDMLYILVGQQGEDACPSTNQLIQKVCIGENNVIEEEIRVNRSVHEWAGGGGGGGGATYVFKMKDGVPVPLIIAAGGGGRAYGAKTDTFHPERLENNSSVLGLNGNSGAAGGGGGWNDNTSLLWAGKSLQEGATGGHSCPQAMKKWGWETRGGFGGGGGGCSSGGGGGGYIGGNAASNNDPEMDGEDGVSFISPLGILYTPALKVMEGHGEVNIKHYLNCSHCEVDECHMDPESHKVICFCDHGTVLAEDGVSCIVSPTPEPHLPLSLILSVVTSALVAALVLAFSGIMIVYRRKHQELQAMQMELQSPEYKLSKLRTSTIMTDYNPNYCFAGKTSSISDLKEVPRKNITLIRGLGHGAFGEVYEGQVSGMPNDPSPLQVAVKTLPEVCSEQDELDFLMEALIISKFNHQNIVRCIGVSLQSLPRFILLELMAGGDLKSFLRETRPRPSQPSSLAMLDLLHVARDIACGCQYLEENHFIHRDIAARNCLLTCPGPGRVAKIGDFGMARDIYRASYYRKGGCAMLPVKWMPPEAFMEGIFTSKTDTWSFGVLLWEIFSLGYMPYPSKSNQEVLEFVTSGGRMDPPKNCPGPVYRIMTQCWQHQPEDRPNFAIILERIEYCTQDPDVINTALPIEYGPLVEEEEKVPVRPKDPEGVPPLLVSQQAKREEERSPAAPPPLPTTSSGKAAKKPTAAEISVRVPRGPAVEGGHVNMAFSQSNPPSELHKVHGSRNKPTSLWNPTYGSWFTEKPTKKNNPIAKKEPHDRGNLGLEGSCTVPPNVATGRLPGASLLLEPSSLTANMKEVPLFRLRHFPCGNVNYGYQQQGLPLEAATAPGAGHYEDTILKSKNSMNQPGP

On to `O=C(Nc1cccc([C@@H]2CN(c3ncnc4[nH]ccc34)CCN2CCO)c1)Nc1c(F)cccc1N1CCCC1`, for which the inhibition in assay [1] was 88%; in assay [2] it was 30%; in [3], 100%; in [4], 100%; in assay [5] it was 100%; in assay [6] it was 95%. Besides, the inhibition was determined as 67% in assay [7]; 72% in assay [8]; 0% in assay [9]; 26% in [10]; 0.3% in assay [11]; 100% in assay [12].
With `O=C(Nc1cccc([C@H]2CCCN(c3ncnc4[nH]ccc34)C2)c1)Nc1ccccc1N1CCCC1`, the inhibition was determined as 100% in [13]; 100% in [14]; 80% in assay [15]; 50% in assay [16]; 63% in assay [17]; 24% in assay [18]. Besides, the inhibition is 72% in [19]; 8.6% in [20]; 100% in assay [21]; 0.45% in [22]; 58% in [23]; 100% in assay [24]. Moreover, the inhibition was 41% in assay [25], 7.2% in [26] and 96% in assay [27].

The record behind these values is ChEMBL document CHEMBL4387741, “Optimization of novel reversible Bruton's tyrosine kinase inhibitors identified using Tethering-fragment-based screens” (Bioorg Med Chem, 2019).
